Tests used:
[1] = target: T1, human Nav1.7 channels stably expressed in HEK 293 cells (Homo sapiens, UniProt Q15858); assay: IonWorks Quattro automated patch-clamp, state-dependent inhibition of Nav1.7; type: cell-based; details: inactivated state block, double-pulse protocol, holding -100 mV, read-out: potency for the Nav 1.7 sodium ion channel (as measured by IonWorks)
T1 construct: expressed in transfected cells
Description: (§1) Compounds were tested on human Nav1.7 and Nav1.5 channels stably expressed in HEK 293 cells. […] Cells were sealed on a planar substrate using the Population Patch Plate (PPC) technology. Electrical access was obtained using both nystatin and amphotericin. A double-pulse protocol was used for the determination of IC50 values for inactivated state block. Nav1.7 and Nav1.5 expressing cells were voltage clamped at −100 mV and −110 mV, respectively. A depolarizing prepulse to −10 mV (Nav1.7) or −30 mV (Nav1.5) for 1000 ms followed by a 10 ms repolarization to −100 mV (Nav1.7) or −110 mV (Nav1.5) was given to generate fractional channel inactivation of ˜50%, followed by a 10 ms test pulse to −10 mV (Nav1.7) or −30 mV (Nav1.5) to measure peak current in control conditions and after compound addition. The following recording solutions were used (mM). External: 150 NaCl, 2 CaCl2, 5 KCl, 1 Mg Cl2, 10 HEPES, 12 Dextrose; internal: 120 CsF, 30 CsCl, 10 EGTA, 5 HEPES, 5 NaF, 2 MgCl2.
(§2) For all electrophysiology experiments, offline analysis was used to determine percent inhibition as a function of drug concentration. IC50 values were determined by fitting to the Hill equation.
(§3) The various compounds in Examples 1 through 4 and Tables 1 through 3 exemplified above were assayed for activity and selectivity using the foregoing IonWorks® technique. The results are reported in the following paragraph in a format expressing the identification of the compound with reference Example and compound (e.g. Ex 1-1 is Example 1, compound 1) followed by the observed potency in nM and the ratio of Nav1.7 potency:Nav 1.5 potency as described here. […]

[2] = target: T2, human Nav1.5 channels stably expressed in HEK 293 cells (Homo sapiens, UniProt Q14524); assay: IonWorks Quattro automated patch-clamp, Nav1.5 (selectivity ratio versus Nav1.7); type: cell-based; details: selectivity for Nav1.7 over Nav1.5, inactivated state block
T2 construct: expressed in transfected cells
Description: as §1, §2, §3

T1 sequence (Q15858 whole entry): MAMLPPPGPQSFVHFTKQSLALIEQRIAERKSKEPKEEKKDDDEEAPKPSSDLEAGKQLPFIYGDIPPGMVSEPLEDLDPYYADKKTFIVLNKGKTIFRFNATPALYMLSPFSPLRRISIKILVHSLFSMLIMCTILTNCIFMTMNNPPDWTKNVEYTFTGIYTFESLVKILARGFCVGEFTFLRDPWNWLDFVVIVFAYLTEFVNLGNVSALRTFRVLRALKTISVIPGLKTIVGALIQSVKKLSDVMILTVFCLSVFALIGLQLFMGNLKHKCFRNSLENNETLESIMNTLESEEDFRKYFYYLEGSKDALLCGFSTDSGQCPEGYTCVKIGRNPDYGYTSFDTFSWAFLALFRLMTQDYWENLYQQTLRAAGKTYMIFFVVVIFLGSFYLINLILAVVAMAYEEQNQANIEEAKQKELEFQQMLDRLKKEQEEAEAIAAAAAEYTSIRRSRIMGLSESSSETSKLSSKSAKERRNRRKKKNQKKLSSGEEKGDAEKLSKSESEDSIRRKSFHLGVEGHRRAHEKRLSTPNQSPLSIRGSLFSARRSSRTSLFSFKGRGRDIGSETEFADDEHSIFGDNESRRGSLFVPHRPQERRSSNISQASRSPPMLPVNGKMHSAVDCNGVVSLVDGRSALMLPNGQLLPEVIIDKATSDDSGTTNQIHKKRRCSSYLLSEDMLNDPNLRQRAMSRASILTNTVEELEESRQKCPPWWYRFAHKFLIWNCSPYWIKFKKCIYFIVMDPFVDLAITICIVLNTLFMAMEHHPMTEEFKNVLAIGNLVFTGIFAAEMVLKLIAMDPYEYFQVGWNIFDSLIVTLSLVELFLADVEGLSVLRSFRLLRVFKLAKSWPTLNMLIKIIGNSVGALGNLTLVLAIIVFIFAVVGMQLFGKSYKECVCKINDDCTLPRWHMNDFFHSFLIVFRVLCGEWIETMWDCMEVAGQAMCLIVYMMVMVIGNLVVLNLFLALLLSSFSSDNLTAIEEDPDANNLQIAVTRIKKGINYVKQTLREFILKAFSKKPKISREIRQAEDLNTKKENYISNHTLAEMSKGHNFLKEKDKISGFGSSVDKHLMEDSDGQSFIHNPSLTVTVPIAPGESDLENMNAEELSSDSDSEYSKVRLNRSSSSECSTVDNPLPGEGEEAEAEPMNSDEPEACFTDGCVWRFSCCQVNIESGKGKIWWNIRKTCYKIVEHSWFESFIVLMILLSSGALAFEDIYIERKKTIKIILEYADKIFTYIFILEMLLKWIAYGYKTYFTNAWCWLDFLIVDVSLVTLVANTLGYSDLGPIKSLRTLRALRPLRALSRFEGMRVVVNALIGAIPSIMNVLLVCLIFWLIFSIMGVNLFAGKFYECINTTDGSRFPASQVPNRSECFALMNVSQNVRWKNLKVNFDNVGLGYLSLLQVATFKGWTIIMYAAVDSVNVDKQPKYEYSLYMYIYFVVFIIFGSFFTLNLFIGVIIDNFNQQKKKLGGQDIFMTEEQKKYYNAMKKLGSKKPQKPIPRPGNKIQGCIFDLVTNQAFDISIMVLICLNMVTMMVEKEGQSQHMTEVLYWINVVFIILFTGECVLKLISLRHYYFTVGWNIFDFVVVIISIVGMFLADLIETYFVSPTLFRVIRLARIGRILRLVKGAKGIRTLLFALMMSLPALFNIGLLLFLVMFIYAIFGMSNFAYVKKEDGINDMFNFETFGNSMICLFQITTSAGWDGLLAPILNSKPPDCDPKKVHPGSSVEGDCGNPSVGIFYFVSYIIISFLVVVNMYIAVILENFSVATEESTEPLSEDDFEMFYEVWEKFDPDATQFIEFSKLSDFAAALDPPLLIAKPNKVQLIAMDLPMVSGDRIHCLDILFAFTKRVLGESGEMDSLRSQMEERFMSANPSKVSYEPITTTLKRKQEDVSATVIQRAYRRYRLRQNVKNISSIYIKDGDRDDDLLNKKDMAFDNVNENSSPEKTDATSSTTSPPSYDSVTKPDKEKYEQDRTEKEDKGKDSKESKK
T2 sequence (Q14524 whole entry): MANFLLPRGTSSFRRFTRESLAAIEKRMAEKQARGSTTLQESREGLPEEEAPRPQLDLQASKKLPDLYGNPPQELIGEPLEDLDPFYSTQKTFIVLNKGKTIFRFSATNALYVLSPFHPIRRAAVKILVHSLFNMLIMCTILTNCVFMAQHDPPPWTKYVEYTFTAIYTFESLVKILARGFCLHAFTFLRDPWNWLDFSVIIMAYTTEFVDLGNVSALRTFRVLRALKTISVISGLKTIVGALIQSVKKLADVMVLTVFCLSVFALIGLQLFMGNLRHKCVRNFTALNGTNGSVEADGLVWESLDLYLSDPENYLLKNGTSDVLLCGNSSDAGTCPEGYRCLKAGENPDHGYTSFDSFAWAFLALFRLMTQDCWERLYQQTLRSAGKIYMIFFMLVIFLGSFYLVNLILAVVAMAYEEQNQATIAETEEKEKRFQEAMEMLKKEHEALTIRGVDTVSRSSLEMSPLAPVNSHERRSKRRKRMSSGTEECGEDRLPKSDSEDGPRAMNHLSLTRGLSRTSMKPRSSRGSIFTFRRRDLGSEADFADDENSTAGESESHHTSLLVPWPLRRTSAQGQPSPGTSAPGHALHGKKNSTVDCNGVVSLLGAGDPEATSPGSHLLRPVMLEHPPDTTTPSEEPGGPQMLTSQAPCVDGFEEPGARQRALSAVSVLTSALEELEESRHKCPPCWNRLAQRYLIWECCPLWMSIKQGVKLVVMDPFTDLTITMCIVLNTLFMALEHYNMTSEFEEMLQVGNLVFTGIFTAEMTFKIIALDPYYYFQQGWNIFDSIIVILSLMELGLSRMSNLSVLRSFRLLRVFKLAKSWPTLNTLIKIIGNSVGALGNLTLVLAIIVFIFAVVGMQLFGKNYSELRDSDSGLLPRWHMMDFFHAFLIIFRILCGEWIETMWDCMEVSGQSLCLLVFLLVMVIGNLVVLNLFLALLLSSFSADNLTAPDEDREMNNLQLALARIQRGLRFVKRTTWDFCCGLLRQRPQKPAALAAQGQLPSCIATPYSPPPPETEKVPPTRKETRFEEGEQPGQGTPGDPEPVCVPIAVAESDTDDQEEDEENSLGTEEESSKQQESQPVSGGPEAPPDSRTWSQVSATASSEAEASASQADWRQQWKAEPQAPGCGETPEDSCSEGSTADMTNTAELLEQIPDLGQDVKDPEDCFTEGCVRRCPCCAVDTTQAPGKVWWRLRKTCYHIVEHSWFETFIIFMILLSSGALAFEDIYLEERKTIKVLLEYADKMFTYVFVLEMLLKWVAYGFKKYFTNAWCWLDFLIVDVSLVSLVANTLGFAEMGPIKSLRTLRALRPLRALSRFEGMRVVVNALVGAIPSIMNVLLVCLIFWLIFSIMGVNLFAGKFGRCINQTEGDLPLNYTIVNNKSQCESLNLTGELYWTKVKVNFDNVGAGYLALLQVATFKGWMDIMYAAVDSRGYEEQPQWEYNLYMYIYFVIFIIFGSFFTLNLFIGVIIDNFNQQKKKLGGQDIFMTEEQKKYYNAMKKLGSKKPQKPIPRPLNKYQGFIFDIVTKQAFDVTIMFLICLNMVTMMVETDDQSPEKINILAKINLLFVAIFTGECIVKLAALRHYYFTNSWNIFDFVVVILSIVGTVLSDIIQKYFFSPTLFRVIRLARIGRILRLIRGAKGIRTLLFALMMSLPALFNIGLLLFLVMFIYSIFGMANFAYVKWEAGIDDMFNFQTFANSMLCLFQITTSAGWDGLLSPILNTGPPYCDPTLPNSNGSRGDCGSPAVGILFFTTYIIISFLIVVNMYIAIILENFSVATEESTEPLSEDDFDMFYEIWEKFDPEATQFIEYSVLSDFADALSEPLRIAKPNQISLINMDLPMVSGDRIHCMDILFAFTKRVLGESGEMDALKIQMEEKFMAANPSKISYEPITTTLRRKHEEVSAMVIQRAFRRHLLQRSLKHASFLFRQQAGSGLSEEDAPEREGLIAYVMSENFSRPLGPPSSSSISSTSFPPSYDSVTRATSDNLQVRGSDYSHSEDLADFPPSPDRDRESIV

Row | SMILES | IC50 [1] [nM] | ratio of Nav1.7 potency:Nav 1.5 potency [2]
1 | Cc1cc(S(=O)(=O)Nc2ncc(F)s2)c(F)cc1NCCCCNCC1(O)CNC1 [EX 1-4, 2-fluoro-N-(5-fluoro-1,3-thiazol-2-yl)-4-[(4-{[(3-hydroxyazetidin-3-yl)methyl]amino}butyl)amino]-5-methylbenzenesulfonamide] | 39 | ≥ 846
2 | NC[C@H](O)CNCCCCNc1cc(F)c(S(=O)(=O)Nc2ncns2)cc1Cl [EX 1-1, 4-[(4-{[(2S)-3-amino-2-hydroxypropyl]amino}butyl)amino]-5-chloro-2-fluoro-N-1,2,4-thiadiazol-5-ylbenzenesulfonamide] | 50 | ≥ 660
3 | NC[C@H](O)CNCCCCNc1cc(F)c(S(=O)(=O)Nc2ncns2)cc1Br [EX 1-7, 4-[(4-{[(2S)-3-amino-2-hydroxypropyl]-amino}butyl)amino]-5-bromo-2-fluoro-N-1,2,4-thiadiazol-5-yl-benzenesulfonamide] | 7 | ≥ 4714
4 | Cc1csc(NS(=O)(=O)c2cc(Cl)c(NCCCCNCC3(O)CNC3)cc2F)n1 [EX 1-9, 5-chloro-2-fluoro-4-[(4-{[(3-hydroxyazetidin-3-yl)methyl]amino}butyl)amino]-N-(4-methyl-1,3-thiazol-2-yl)-benzenesulfonamide] | 55 | ≥ 600
5 | NCC1(O)CN(CCCCNc2cc(F)c(S(=O)(=O)Nc3ncns3)cc2Br)C1 [EX 1-11, 4-((4-(3-(aminomethyl)-3-hydroxyazetidin-1-yl)butyl)amino)-5-bromo-2-fluoro-N-(1,2,4-thiadiazol-5-yl)benzenesulfonamide] | 6.6 | ≥ 5000

Continued, in another order:

Row | IC50 [1] [nM] | SMILES | ratio of Nav1.7 potency:Nav 1.5 potency [2]
6 | 25 | O=S(=O)(Nc1ncns1)c1cc(Br)c(NCCCCN[C@@H]2CNC[C@H]2O)cc1F [EX 2-44, 5-bromo-2-fluoro-4-((4-(((3R,4R)-4-hydroxypyrrolidin-3-yl)amino)butyl)amino)-N-(1,2,4-thiadiazol-5-yl)benzenesulfonamide] | ≥ 1300
7 | 32 | O=S(=O)(Nc1ncc(F)s1)c1cc(Cl)c(NCCCCN[C@H]2CNC[C@@H]2O)cc1F [EX 2-16, 5-chloro-2-fluoro-N-(5-fluoro-1,3-thiazol-2-yl)-4-[(4-{[(3S,4S)-4-hydroxypyrrolidin-3-yl]amino}butyl)amino] benzenesulfonamide] | ≥ 1031
8 | 16 | O=S(=O)(Nc1ncns1)c1cc(Cl)c(NCCCCNCC2(O)CNC2)cc1F [EX 2-1, 5-chloro-2-fluoro-4-[(4-{[(3-hydroxyazetidin-3-yl)methyl]amino}butyl)amino]-N-1,2,4-thiadiazol-5-ylbenzenesulfonamide] | ≥ 2063
9 | 29 | NC[C@H](CO)NCCCCNc1cc(F)c(S(=O)(=O)Nc2ncns2)cc1Cl [EX 2-41] | ≥ 655
10 | 100 | CC1(O)CN[C@H](CNCCCCNc2cc(F)c(S(=O)(=O)Nc3nccs3)cc2Cl)C1 (stereo partly drawn) [EX 3-1, 5-chloro-2-fluoro-4-((4-((((2S)-4-hydroxy-4-methylpyrrolidin-2-yl)methyl)amino)butyl)amino)-N-(thiazol-2-yl)benzenesulfonamide] | ≥ 330
11 | 24 | NC[C@@H](CO)NCCCCNc1cc(F)c(S(=O)(=O)Nc2ncc(F)s2)cc1Cl [EX 2-36, 4-[(4-{[(1S)-2-amino-1-(hydroxymethyl)ethyl]amino}butyl)amino]-5-chloro-2-fluoro-N-(5-fiuoro-1,3-thiazol-2-yl)benzenesutfonamide] | ≥ 1375
12 | 35 | O=S(=O)(Nc1ncc(F)s1)c1cc(Cl)c(NCCCCNC[C@@H]2C[C@@H](O)CN2)cc1F [EX 2-22, 5-chloro-2-fluoro-N-(5-fluoro-1,3-thiazol-2-yl)-4-{[4-({[(2S,4R)-4-hydroxypyrrolidin-2-yl]methyl}amino)butyl]amino} benzenesulfonamide] | ≥ 942
13 | 32 | O=S(=O)(Nc1ncc(F)s1)c1cc(Cl)c(NCCCCNC[C@@H]2C[C@H](O)CN2)cc1F [EX 2-21, 5-chloro-2-fluoro-N-(5-fluoro-1,3-thiazol-2-yl)-4-{[4-({[(2S,4S)-4-hydroxypyrrolidin-2-yl]methyl}amino)butyl]amino} benzenesulfonamide] | ≥ 344
14 | 27 | NC[C@@H](CO)NCCCCNc1cc(F)c(S(=O)(=O)Nc2ncns2)cc1Cl [EX 2-37, 4-[(4-{[(1S)-2-amino-1-(hydroxymethyl)ethyl]amino}butyl)amino]-5-chloro-2-fluoro-N-1,2,4-thiadiazol-5-ylbenzenesulfonamide] | ≥ 1222
15 | 16 | NCC(O)CNCCCCNc1cc(F)c(S(=O)(=O)Nc2ncc(F)s2)cc1Cl (single isomer, unassigned) [EX 2-18, 4-[(4-{[(2S or 2R)-3-amino-2-hydroxypropyl]amino}butyl)amino]-5-chloro-2-fluoro-N-(5-fluoro-1,3-thiazol-2-yl)benzenesulfonamide] | ≥ 1000
16 | 60 | NC[C@H](CO)NCCCCNc1cc(F)c(S(=O)(=O)Nc2nccs2)cc1Cl [EX 2-39, 4-[(4-{[(1R)-2-amino-1-(hydroxymethyl)ethyl)amino}butyl)amino]-5-chloro-2-fluoro-N-1,3-thiazol-2-ylbenzenesulfonamide] | ≥ 550

Reference: patent US10221167B2, “Hydroxyalkylamine- and hydroxycycloalkylamine-substituted diamine-arylsulfonamide compounds with selective activity in voltage-gated sodium channels” (Merck Sharp & Dohme Corp., priority 2015, dated 2019)
